PMC10482691, “LTP induction by structural rather than enzymatic functions of CaMKII” (Nature, 2023)
Values joined by “and” are separate entries in the source; they are usually repeats but may differ in a detail not shown here. Equal entries are not always repeated.

Tests used:
[1] = test system: GFP–paCaMKII T286A in hippocampal neurons; test: paCaMKII T286A photoactivation: dendritic spine growth (sLTP); assay type: cell-based
[2] = test system: GFP–paCaMKII F89G in hippocampal neurons; test: paCaMKII F89G photoactivation: dendritic spine growth (sLTP); assay type: cell-based

## NCCNc1cccc(-c2ccnc3[nH]c4ccccc4c23)c1 [AS283]
[1]; AS283 10 μM
  spine growth after photoactivation of paCaMKII T286A: spine growth
[1]; paCaMKII T286A + AS283, individual neurons
  dendritic spine growth after photoactivation (sheet 6c): 17.1219 and 31.801 and 10.2332 and 47.3616 and 15.5579 and 21.0974 and 9.7214 and 4.0121 and 26.179

## CC(C)(C)n1nc(Cc2cccc3ccccc23)c2c(N)ncnc21 [NM-PP1]
[2]; NM-PP1 10 μM
  spine growth after photoactivation of paCaMKII F89G: spine growth
[2]; paCaMKII F89G + NMPP1, individual neurons
  dendritic spine growth after photoactivation (sheet 6f): 172.556 and 35.7596 and 20.47 and 19.9369 and 44.1548 and -7.983 and 10.7769 and 28.3493 and 0.9564 and -9.357 and -3.692 and 75.8167 and 167.851 and -2.441 and -1.61 and -17.673 and 155.504 and 81.1061
